Laboratory results from the NIST ThermoML archive (doi:10.1021/je5005752).

Assay: xn = mol fraction of the nth substance listed
Conditions: 101 kPa, Liquid; for viscosity: Falling or rolling sphere viscometry; for mass density: Vibrating tube method

CCCC(=O)OCC [ethyl butanoate] + CCCCO
Conditions	mass density [kg/m3]	viscosity [mPa·s]
288.15 K, x1 = 0.1	822.84	2.336
288.15 K, x1 = 0.2001	831.39	1.762
288.15 K, x1 = 0.2999	839.43	1.408
288.15 K, x1 = 0.3998	846.96	1.186
288.15 K, x1 = 0.5	854.06	1.022
288.15 K, x1 = 0.5999	860.72	0.9212
288.15 K, x1 = 0.6998	867	0.8393
288.15 K, x1 = 0.7999	872.95	0.785
288.15 K, x1 = 0.9001	878.66	0.7409
288.15 K, x1 = 1	884.16	0.7224
293.15 K, x1 = 0.1	818.8	2.037
293.15 K, x1 = 0.2001	827.16	1.581
293.15 K, x1 = 0.2999	835.01	1.279
293.15 K, x1 = 0.3998	842.37	1.085
293.15 K, x1 = 0.5	849.32	0.9419
293.15 K, x1 = 0.5999	855.86	0.8544
293.15 K, x1 = 0.6998	862.01	0.7817
293.15 K, x1 = 0.7999	867.86	0.7316
293.15 K, x1 = 0.9001	873.47	0.6958
293.15 K, x1 = 1	878.9	0.6808
298.15 K, x1 = 0.1	814.75	1.841
298.15 K, x1 = 0.2001	822.9	1.427
298.15 K, x1 = 0.2999	830.57	1.166
298.15 K, x1 = 0.3998	837.77	0.9988
298.15 K, x1 = 0.5	844.57	0.8734
298.15 K, x1 = 0.5999	850.97	0.7967
298.15 K, x1 = 0.6998	857	0.7315
298.15 K, x1 = 0.7999	862.74	0.6849
298.15 K, x1 = 0.9001	868.27	0.656
298.15 K, x1 = 1	873.62	0.643
303.15 K, x1 = 0.1	810.68	1.648
303.15 K, x1 = 0.2001	818.63	1.292
303.15 K, x1 = 0.2999	826.12	1.068
303.15 K, x1 = 0.3998	833.15	0.9215
303.15 K, x1 = 0.5	839.8	0.8111
303.15 K, x1 = 0.5999	846.07	0.7434
303.15 K, x1 = 0.6998	851.98	0.6856
303.15 K, x1 = 0.7999	857.62	0.6447
303.15 K, x1 = 0.9001	863.05	0.6181
303.15 K, x1 = 1	868.33	0.6072
308.15 K, x1 = 0.1	806.58	1.479
308.15 K, x1 = 0.2001	814.33	1.174
308.15 K, x1 = 0.2999	821.63	0.9797
308.15 K, x1 = 0.3998	828.5	0.852
308.15 K, x1 = 0.5	835.01	0.7542
308.15 K, x1 = 0.5999	841.14	0.6973
308.15 K, x1 = 0.6998	846.94	0.6428
308.15 K, x1 = 0.7999	852.47	0.6063
308.15 K, x1 = 0.9001	857.82	0.583
308.15 K, x1 = 1	863.02	0.5736
313.15 K, x1 = 0.1	802.44	1.342
313.15 K, x1 = 0.2001	809.99	1.078
313.15 K, x1 = 0.2999	817.12	0.9078
313.15 K, x1 = 0.3998	823.82	0.7938
313.15 K, x1 = 0.5	830.18	0.7053
313.15 K, x1 = 0.5999	836.19	0.6517
313.15 K, x1 = 0.6998	841.87	0.6037
313.15 K, x1 = 0.7999	847.3	0.57
313.15 K, x1 = 0.9001	852.56	0.5487
313.15 K, x1 = 1	857.7	0.5425
318.15 K, x1 = 0.1	798.28	1.204
318.15 K, x1 = 0.2001	805.63	0.9786
318.15 K, x1 = 0.2999	812.57	0.8314
318.15 K, x1 = 0.3998	819.12	0.7327
318.15 K, x1 = 0.5	825.33	0.6556
318.15 K, x1 = 0.5999	831.21	0.6088
318.15 K, x1 = 0.6998	836.78	0.5678
318.15 K, x1 = 0.7999	842.11	0.5382
318.15 K, x1 = 0.9001	847.29	0.5197
318.15 K, x1 = 1	852.36	0.5132
323.15 K, x1 = 0.1	794.08	1.109
323.15 K, x1 = 0.2001	801.22	0.9039
323.15 K, x1 = 0.2999	807.99	0.7743
323.15 K, x1 = 0.3998	814.38	0.685
323.15 K, x1 = 0.5	820.45	0.6163
323.15 K, x1 = 0.5999	826.2	0.5736
323.15 K, x1 = 0.6998	831.66	0.5372
323.15 K, x1 = 0.7999	836.9	0.5114
323.15 K, x1 = 0.9001	842	0.4942
323.15 K, x1 = 1	847	0.487
